Source: ChEMBL document CHEMBL1154999, “N-(2,2-Dimethyl-2-(2-nitrophenyl)acetyl)-4-aminocyclophosphamide as a potential bioreductively activated prodrug of phosphoramide mustard” (Bioorg Med Chem Lett, 2008)

Experiments:
Assay type in all cases: physicochemical
[1] = Chemical stability in sodium acetate buffer assessed as half life at pH 4.0 at 37 degC
[2] = Chemical stability in sodium acetate buffer assessed as half life at pH 4.5 at 37 degC
[3] = Chemical stability in sodium phosphate buffer assessed as half life at pH 7.4 at 37 degC
[4] = Chemical stability in sodium acetate buffer assessed as half life at pH 5.6 at 37 degC
[5] = Chemical stability in sodium acetate buffer assessed as half life at pH 5.0 at 37 degC
[6] = Chemical stability in sodium phosphate buffer assessed as half life at pH 6.0 at 37 degC
[7] = Chemical stability in sodium phosphate buffer assessed as half life at pH 6.5 at 37 degC
[8] = Chemical stability in sodium acetate buffer assessed as half life at pH 5.4 at 37 degC

Compound `CC(C)(C(=O)NC1CCOP(=O)(N(CCCl)CCCl)N1)c1ccccc1N` (stereo not drawn) has a half-life [1] of 3.2 min, a half-life [2] of 4.9 min and a half-life [3] of 53.7 min. For the same compound, the half-life [4] was 27.2 min, the half-life [5] was 9.8 min and the half-life [6] was 12.6 min. It also gave a half-life [7] of 19.3 min and a half-life [8] of 17.5 min.
